In PubChem BioAssay AID1996:
In brackets after ≈: the same amount, converted by molar mass.

conditions: buffer; pH 7.4; 200.0 µM

| Compound | solubility kinetic [µg/mL] |
| --- | --- |
| CCN(c1ccccc1)S(=O)(=O)c1ccc(Oc2ccccc2C(C)=O)nc1 | 18.6 (≈ 46.9 µM) |
| O=C(c1cccs1)N1CCN(c2ccc(Cl)cc2)CC1 | 39.2 (≈ 128 µM) |
| COc1cccc(/C=C/C(=O)OCC(=O)NC2CC2)c1 | > 41.3 |
| CN1C[C@@H]2C[C@@H](c3cccn3-c3ccccn3)N3CCC[C@@]23C1=O | > 48.4 |
| CC(=O)c1cccc(NC(=O)c2ccc3ccccc3c2)c1 | 1.9 (≈ 6.57 µM) |
| CNC(=O)CSc1nnc(-c2ccco2)n1-c1cccc(C)c1C | > 51.4 |
| COc1ccc(Cl)cc1N1C(=O)CC(Sc2ccccc2N)C1=O (centres undefined) | < 0.4 |
| CN(Cc1cccs1)C(=O)CSc1nc2ccccc2[nH]1 | 45 (≈ 142 µM) |
| O=C(Nc1ccc2[nH]ccc2c1)c1ccc(F)cc1 | > 38.1 |
| Cc1cc(C)c(S(=O)(=O)NCc2cccnc2)cc1C | > 43.6 |
| COc1ccc(NC(=O)/C=C/C(=O)O)c(OC)c1 | 37 (≈ 147 µM) |
| NC(=O)c1cc(-c2csc(NCCc3ccccc3)n2)ccc1O | 8 (≈ 23.6 µM) |
| CCCNC(=O)c1ccccc1SCc1c(C)noc1C | > 45.7 |
| CCOc1ccc(C(=O)CCC(=O)Nc2ccncc2)cc1 | 42.9 (≈ 144 µM) |
| O=c1c2cc([N+](=O)[O-])ccc2nc2n1CCC2 | > 34.7 |
| O=C(NCC(=O)N1CCCC(C(F)(F)F)C1)c1ccco1 (centres undefined) | > 45.6 |
| Cl.c1ccc(C2CN3CCSC3=N2)cc1 (centres undefined) | > 36.1 |
| Cc1nc2ccccc2c(=O)n1-c1ccc([N+](=O)[O-])cc1 | > 42.2 |
| Cl.NCC12CC3CC(C1)CC(c1ccc(Cl)cc1)(C3)C2 | > 46.8 |
| OCC1(CO)COC(/C=C/c2ccccc2)=N1 | > 35 |
| CC1CCCCC1NC(=S)Nc1ccc(Cl)cc1Cl (centres undefined) | 1 (≈ 3.15 µM) |
| CC12CC(O)C3c4ccc(O)cc4CCC3C1CC/C2=N\O (centres undefined) | > 45.2 |
| Cc1ccc([N+](=O)[O-])cc1NC(=O)c1ccccc1 | 8.5 (≈ 33.2 µM) |
| CN(C(=O)CSc1nc(-c2cccs2)nc2ccccc12)C1CCS(=O)(=O)C1 (centres undefined) | 2.5 (≈ 5.77 µM) |

| Compound | solubility kinetic [µg/mL] |
| --- | --- |
| CC1CCN(C(=O)c2ccccc2NC(=O)c2cccc(S(=O)(=O)N(C)C)c2)CC1 | 63.9 (≈ 149 µM) |
| CCN(C(=O)COC(=O)c1cnccn1)c1cccc2ccccc12 | > 50.3 |
| Clc1cc(Cl)cc(Nc2ncnc(-n3cccc3)n2)c1 | < 0.1 |
| Cc1nnc(SCC(=O)Nc2cccc(N)c2)n1-c1ccccc1 | > 50.9 |
| CC(=O)c1c(C)[nH]c(C(=O)NCc2ccccc2F)c1C | 41.6 (≈ 144 µM) |
| CC1(C)CC(CC(=O)O)CC(C)(C)N1.Cl | > 35.4 |
| Cc1cccc(NC(=O)N2CCCCCC2)c1 | > 34.8 |
| Fc1ccc(-c2c[nH]c(=S)n2Cc2ccccc2)cc1 | 1.4 (≈ 4.92 µM) |
| COc1ccc(NC(=O)CN(C)C(=O)c2ccc(=O)[nH]c2)cc1 | > 47.3 |
| Cc1cccc(NS(=O)(=O)c2ccc(Cl)cc2)n1 | 31.6 (≈ 112 µM) |
| CN1C2CCC1CC(NC(=O)CSc1ccc(Cl)cc1)C2 (centres undefined) | > 48.7 |
| O=[N+]([O-])c1cnc(Nc2ccccc2)nc1Nc1ccccc1 | 0.2 (≈ 0.651 µM) |
| O=[N+]([O-])c1ccc(SCc2ccco2)cc1N1CCOCC1 | 13.2 (≈ 41.2 µM) |
| CCN(Cc1ccncc1)C(=O)C(CO)c1ccccc1 (centres undefined) | > 42.7 |
| CC1CCN(C(=O)CSc2nc3ccccc3c(=O)[nH]2)CC1 | > 47.6 |
| O=c1[nH]c(Sc2ccc([N+](=O)[O-])cc2[N+](=O)[O-])nc2ccccc12 | 26.3 (≈ 76.4 µM) |
| O=C1CN(C(=O)/C=C/c2cc(Br)ccc2F)CCN1 | > 49.1 |
| COc1ccc(NC(=O)C(Cc2ccccc2)n2cccc2)c(OC)c1 (centres undefined) | 12.9 (≈ 36.8 µM) |
| CC(=O)C1=C(O)C(=O)N(Cc2ccco2)C1c1cccc(F)c1 (centres undefined) | > 47.3 |
| COc1cccc(N(CC(=O)N2CCCC2)S(C)(=O)=O)c1 | > 46.9 |
| O=C(COc1ccc(Cl)cc1)Nc1ccccc1Cl | < 0.6 |
| COc1ccc(Nc2ncnc3sccc23)c(OC)c1 | 25.1 (≈ 87.4 µM) |
| O=C(COC(=O)c1ccccc1Br)NCc1cccs1 | > 53.1 |
| Cc1cccc(NC(=S)NC(=O)c2oc3ccccc3c2C)n1 | < 0.2 |

| Compound | solubility kinetic [µg/mL] |
| --- | --- |
| O=C(NCc1ccccc1)c1ccc(Cl)c(S(=O)(=O)N2CCCC2)c1 | 33.9 (≈ 89.5 µM) |
| CCCOc1ccc(C2=CSC3=NCCN23)cc1Cl | 40.4 (≈ 137 µM) |
| COC(=O)c1csc(S(=O)(=O)N2CCCCC2)c1OC | > 47.9 |
| Cc1c(Cl)cccc1NC(=S)NC1CCCC1 | 7.5 (≈ 27.9 µM) |
| COc1ccc(-c2cc(C(=O)Nc3ccccc3O)c3ccccc3n2)cc1 | < 0.4 |
| O=C(Cc1ccccc1)NC1CCSc2ccccc21 (centres undefined) | 11.7 (≈ 41.3 µM) |
| COCCn1c(C)cc(C(=O)COC(=O)c2ccc([N+](=O)[O-])o2)c1C | > 52.5 |
| CN(C(=O)c1ccc(N2CCCCC2)c([N+](=O)[O-])c1)C1CCS(=O)(=O)C1 (centres undefined) | > 57.2 |
| CCCC(=O)c1cc2c(cc1NC(=O)c1ccccc1F)OCCO2 | < 0.7 |
| CCOc1ccc(N2CC(C(=O)NCCc3ccc(F)cc3)CC2=O)cc1 (centres undefined) | 30.8 (≈ 83.1 µM) |
| CN1CCN(C(=O)c2cc3sc4ccccc4c3s2)CC1 | > 47.5 |
| O=C(Nc1cccc2ncccc12)c1cc([N+](=O)[O-])ccc1Cl | 3.2 (≈ 9.76 µM) |
| COc1ccc(Cl)cc1NC(=S)N1CCCCCC1 | 42.7 (≈ 143 µM) |
| O=C(NCc1cccs1)C1CCCN(C(=O)Nc2ccccc2)C1 (centres undefined) | 21.7 (≈ 63.2 µM) |
| O=C(Nc1ccc2ccccc2c1)c1ccc(Cl)cc1 | < 0.6 |
| Cn1c(SCc2ccc([N+](=O)[O-])cc2)nc2c(c1=O)SCC2 | 1.6 (≈ 4.77 µM) |
| O=C(OCC(=O)N1CCOCC1)c1ccc(Cl)c(S(=O)(=O)N2CCc3ccccc32)c1 | 32.4 (≈ 69.7 µM) |
| Cc1ccc(NC(=O)c2ccc3nsnc3c2)c(Cl)c1 | 0.5 (≈ 1.65 µM) |
| COc1nccc(C(F)(F)F)c1C(=O)Nc1ccc(Cl)cc1 | 1.6 (≈ 4.84 µM) |
| CCCCn1c2ccccc2c2cc(CC(N)=O)ccc21 | 3.8 (≈ 13.6 µM) |
| O=C(CN1CCCCCC1)Nc1cc([N+](=O)[O-])ccc1Cl | 22.6 (≈ 72.5 µM) |
| N#Cc1nc(-c2ccc(F)cc2)oc1N1CCCCC1 | 0.9 (≈ 3.32 µM) |
| O=C(CCNC(=O)c1ccccc1Cl)NCc1cccnc1 | > 47.7 |
| Cc1cc(C)c(C#N)c(SCC(=O)Nc2nonc2N)n1 | 15.3 (≈ 50.3 µM) |

| Compound | solubility kinetic [µg/mL] |
| --- | --- |
| CN(C(=O)c1ccco1)c1ccccc1C(=O)O | > 36.8 |
| CC1=CCC(C(=O)O)C(C(=O)NC2CCCCC2)C1 (centres undefined) | > 39.8 |
| CCc1ccccc1NC(=O)N1C[C@H]2C[C@@H](C1)c1cccc(=O)n1C2 | > 50.6 |
| COc1cc(NC(=O)Cc2ccccc2)ccc1NC(=O)c1ccccc1 | < 0.4 |
| Brc1ccc(-c2csc(N3CCCCCC3)n2)cc1 | 1.2 (≈ 3.56 µM) |
| CC1CCCC(C)N1C(=O)CSc1nc(N)cc(N)n1 (centres undefined) | > 44.3 |
| O=C(NCCCN1CCCC1=O)Nc1ccc([N+](=O)[O-])cc1 | > 45.9 |
| O=C(c1cc2cc(F)ccc2[nH]1)N1CCN(c2cccc(Cl)c2)CC1 | 0.5 (≈ 1.4 µM) |
| COc1ccc(CCNC(=O)c2c(C)nc3ccccn23)cc1 | 43 (≈ 139 µM) |
| O=C1CC(/C=C/c2cccnc2)=Nc2ccccc2N1 | 24.4 (≈ 92.7 µM) |
| Fc1ccc(-c2nc(-c3cnccn3)no2)c(Cl)c1 | 3.5 (≈ 12.7 µM) |
| NS(=O)(=O)c1ccc(NC(=O)/C=C/c2ccco2)cc1 | 36.3 (≈ 124 µM) |
| CC(C)(C)c1csc(NC(=O)CSC2=NCCS2)n1 | 10.6 (≈ 33.6 µM) |
| Cc1cc(C)cc(NC(=O)Nc2cnccn2)c1 | 2.4 (≈ 9.91 µM) |
| CCOc1ccc(S(=O)(=O)N2CCNC(=O)C2)cc1 | > 42.6 |
| CCc1c(C)nc(SCC(=O)N2CCCCC2)[nH]c1=O | > 44.3 |
| CC(=O)Nc1ccc(S(=O)(=O)Nc2ccc3c(c2)CCC3)cc1 | 4.2 (≈ 12.7 µM) |
| COc1ccc(-c2csc(NC(=O)c3ccc(C(C)(C)C)cc3)c2C(=O)O)cc1 | > 61.4 |
| COc1ccc(C(=O)NC2CCCc3ccccc32)cc1 (centres undefined) | 6.5 (≈ 23.1 µM) |
| Cc1ccc2c(c1)cc(C(=O)N1CCN(c3ccccn3)CC1)n2C | 2.1 (≈ 6.28 µM) |
| Cc1ccc(Cl)cc1NC(=O)C1CCCN(S(C)(=O)=O)C1 (centres undefined) | 5.8 (≈ 17.5 µM) |
| CC1(C)C(C(=O)N2CCN(C(=O)c3ccccc3)CC2)C1(C)C | > 47.2 |
| N#CCSc1nc2sccc2c(=O)n1-c1ccccc1 | 37 (≈ 124 µM) |
| Oc1ccc(C=Nc2ccc3ncccc3c2)c(O)c1 | 30.5 (≈ 115 µM) |

| Compound | solubility kinetic [µg/mL] |
| --- | --- |
| CCN(C(=O)CSc1nc2ccccc2c(=O)n1-c1ccccc1F)C1CCS(=O)(=O)C1 (centres undefined) | 9.5 (≈ 20 µM) |
| Cc1ccc(NC2CC(C)NC(=S)N2)cc1 (centres undefined) | 33.1 (≈ 141 µM) |
| Cc1ccc(S(=O)(=O)NCCC(=O)NC2CC2)cc1 | > 42.4 |
| O=C(c1ccc(CNS(=O)(=O)c2cccc(Cl)c2)cc1)N1CCCCC1 | 2.6 (≈ 6.62 µM) |
| CNC(=O)c1[nH]cnc1C(=O)Nc1ccc(F)cc1 | 1.7 (≈ 6.48 µM) |
| Cc1cc(=O)[nH]c(SCC(=O)Nc2ccc(N3CCCCC3)cc2)n1 | 28.5 (≈ 79.5 µM) |
| Cc1cc(C)c(NC(=S)N(C)C)c(C)c1 | > 33.4 |
| CCOC(=O)C1(C)Oc2ccc(S(=O)(=O)CC)cc2NC1=O (centres undefined) | 42.7 (≈ 130 µM) |
| O=C(CC1CCCCC1)NCc1ccccc1 | 30.5 (≈ 132 µM) |
| CN(Cc1c(F)cccc1Cl)C(=O)c1cnc2ccccc2n1 | 38.3 (≈ 116 µM) |
| COc1ccc(NC(=O)CSc2cc(C)ccc2C)cn1 | 45.1 (≈ 149 µM) |
| O=S(=O)(NC1CCCCCCC1)c1ccc(F)cc1 | > 42.8 |
| COc1ccc(/C(C)=N/NC(=O)CNC(=O)c2ccco2)cc1 | > 47.3 |
| COc1ccc2c(c1)-c1nc(/N=C/c3ccccc3O)sc1CC2 | 44.5 (≈ 132 µM) |
| COc1ccc(C(=O)OCC(=O)c2ccc[nH]2)c(OC)c1 | > 43.4 |
| COC(=O)c1ccccc1NS(=O)(=O)c1c(C)noc1C | > 46.5 |
| COc1ccc(C(=O)N[C@H](C(=O)NCCc2ccc3c(c2)OCCO3)C(C)C)cc1 | 19.7 (≈ 47.8 µM) |
| c1ccc2c3c([nH]c2c1)CNCC3 | > 25.8 |
| Cc1ccccc1NC(=S)NC(=O)COc1ccccc1C | 1.1 (≈ 3.5 µM) |
| Cc1ccc(SCC(=O)c2ccc[nH]2)cc1 | 24.6 (≈ 106 µM) |
| CC(C)CCC(CCN1CCCC1)c1ccc2c(c1)OCO2.O=C(O)C(=O)O (centres undefined) | 48.4 |
| COc1cc(CN2CCN(c3ncccn3)CC2)cc(OC)c1 | > 47.2 |
| CC(=O)NC(CC(=O)NCCOc1ccccc1F)c1ccccc1 (centres undefined) | > 51.7 |
